Assay results taken from ChEMBL document CHEMBL1125944, “Imidazo[1,2-a]piperazines as mechanistic inhibitors of serine proteinases” (Bioorg Med Chem Lett, 1991).

Biological target: T1, Neutrophil elastase (Homo sapiens, UniProt P08246)
T1 sequence (P08246 whole entry): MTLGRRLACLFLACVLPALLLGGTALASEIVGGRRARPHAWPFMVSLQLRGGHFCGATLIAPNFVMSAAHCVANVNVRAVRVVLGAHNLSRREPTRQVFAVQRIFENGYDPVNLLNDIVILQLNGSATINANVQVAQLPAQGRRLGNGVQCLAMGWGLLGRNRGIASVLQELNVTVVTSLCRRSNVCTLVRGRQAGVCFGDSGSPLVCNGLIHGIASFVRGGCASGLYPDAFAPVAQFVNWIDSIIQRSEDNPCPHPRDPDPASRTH
Assay: Compound was tested for its inhibitory activity against human leukocyte Elastase (HLE)

IC50: 8.74 µM
SMILES: CC(C)C1N=C2CN(C3Cc4ccccc4C3)C(=O)[C@H](C(C)C)N2C1(O)C(F)(F)F (stereo partly specified)
